Values of other authors as cited in paper PMC9851200, “Multiparameter phenotypic screening for endogenous TFEB and TFE3 translocation identifies novel chemical series modulating lysosome function” (Autophagy, 2022).

Assays:
Set-up in all cases: method as in original PKIS2 published data
[1] = biological target: T1, kinases (KINOMEscan panel) (Homo sapiens, UniProt O00329); settings: Published KINOMEscan; ref original PKIS2 published data; cited from earlier work
T1 sequence (O00329 1-1044): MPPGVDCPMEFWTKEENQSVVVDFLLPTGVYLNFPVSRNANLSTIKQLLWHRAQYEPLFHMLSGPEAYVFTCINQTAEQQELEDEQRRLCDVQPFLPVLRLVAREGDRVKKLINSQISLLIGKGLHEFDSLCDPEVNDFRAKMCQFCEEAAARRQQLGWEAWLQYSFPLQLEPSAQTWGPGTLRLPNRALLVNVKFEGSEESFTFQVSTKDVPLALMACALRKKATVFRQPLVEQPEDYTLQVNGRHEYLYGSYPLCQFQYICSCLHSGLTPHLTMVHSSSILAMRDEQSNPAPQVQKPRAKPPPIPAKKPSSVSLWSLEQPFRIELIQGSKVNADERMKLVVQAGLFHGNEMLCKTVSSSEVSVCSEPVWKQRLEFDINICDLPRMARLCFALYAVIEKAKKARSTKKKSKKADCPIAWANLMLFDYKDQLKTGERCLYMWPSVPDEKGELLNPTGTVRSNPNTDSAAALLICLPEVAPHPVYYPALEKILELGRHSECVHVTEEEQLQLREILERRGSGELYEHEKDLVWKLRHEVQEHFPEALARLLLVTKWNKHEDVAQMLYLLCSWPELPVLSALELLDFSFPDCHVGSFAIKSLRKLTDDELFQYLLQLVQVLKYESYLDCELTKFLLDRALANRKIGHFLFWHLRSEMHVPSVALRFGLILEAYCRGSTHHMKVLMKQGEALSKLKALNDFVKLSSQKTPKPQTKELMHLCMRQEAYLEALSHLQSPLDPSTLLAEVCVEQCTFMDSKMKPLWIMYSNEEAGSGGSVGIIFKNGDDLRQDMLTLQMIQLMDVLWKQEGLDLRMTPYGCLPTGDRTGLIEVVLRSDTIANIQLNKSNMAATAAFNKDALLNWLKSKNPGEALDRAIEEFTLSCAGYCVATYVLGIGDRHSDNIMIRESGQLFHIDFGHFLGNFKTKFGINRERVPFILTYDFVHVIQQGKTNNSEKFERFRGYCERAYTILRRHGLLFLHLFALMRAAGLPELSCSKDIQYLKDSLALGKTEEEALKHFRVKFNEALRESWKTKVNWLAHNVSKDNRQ

[2] = biological target: T2, kinases (KINOMEscan panel) (Homo sapiens, UniProt P21709); settings: EPHA1; Published KINOMEscan; ref original PKIS2 published data; cited from earlier work
T2 sequence (P21709 26-976): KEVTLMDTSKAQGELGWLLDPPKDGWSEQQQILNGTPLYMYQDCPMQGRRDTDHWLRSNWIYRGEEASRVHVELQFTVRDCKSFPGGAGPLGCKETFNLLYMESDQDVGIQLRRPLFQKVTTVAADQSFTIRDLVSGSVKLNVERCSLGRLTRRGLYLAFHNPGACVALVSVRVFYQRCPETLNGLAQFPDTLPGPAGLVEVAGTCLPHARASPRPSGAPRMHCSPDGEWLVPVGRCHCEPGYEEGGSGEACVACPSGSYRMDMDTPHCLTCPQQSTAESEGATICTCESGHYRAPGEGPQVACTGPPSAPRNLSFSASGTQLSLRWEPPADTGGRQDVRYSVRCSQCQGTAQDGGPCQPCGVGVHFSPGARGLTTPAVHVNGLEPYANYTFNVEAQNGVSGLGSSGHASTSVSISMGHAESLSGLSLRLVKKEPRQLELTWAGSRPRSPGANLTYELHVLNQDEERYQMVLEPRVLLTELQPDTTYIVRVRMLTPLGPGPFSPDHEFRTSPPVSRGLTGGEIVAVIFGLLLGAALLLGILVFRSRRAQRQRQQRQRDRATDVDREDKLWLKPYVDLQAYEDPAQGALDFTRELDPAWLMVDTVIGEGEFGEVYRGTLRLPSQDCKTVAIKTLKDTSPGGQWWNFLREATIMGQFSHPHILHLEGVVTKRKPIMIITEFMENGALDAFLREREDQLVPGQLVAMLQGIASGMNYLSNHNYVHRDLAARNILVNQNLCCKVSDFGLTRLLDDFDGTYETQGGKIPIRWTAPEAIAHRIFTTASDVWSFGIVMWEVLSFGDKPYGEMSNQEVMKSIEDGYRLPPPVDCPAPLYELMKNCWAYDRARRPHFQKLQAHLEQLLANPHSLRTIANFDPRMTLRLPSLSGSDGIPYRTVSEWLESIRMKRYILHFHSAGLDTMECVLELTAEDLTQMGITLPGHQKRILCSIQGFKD

[3] = biological target: kinases (KINOMEscan panel) (Homo sapiens, UniProt Q8IU85); settings: kinase CAMK1D; Published KINOMEscan; ref original PKIS2 published data; cited from earlier work
[4] = biological target: T3, kinases (KINOMEscan panel) (Homo sapiens, UniProt Q96L34); settings: kinase MARK4; Published KINOMEscan; ref original PKIS2 published data; cited from earlier work
T3 sequence (Q96L34 1-752): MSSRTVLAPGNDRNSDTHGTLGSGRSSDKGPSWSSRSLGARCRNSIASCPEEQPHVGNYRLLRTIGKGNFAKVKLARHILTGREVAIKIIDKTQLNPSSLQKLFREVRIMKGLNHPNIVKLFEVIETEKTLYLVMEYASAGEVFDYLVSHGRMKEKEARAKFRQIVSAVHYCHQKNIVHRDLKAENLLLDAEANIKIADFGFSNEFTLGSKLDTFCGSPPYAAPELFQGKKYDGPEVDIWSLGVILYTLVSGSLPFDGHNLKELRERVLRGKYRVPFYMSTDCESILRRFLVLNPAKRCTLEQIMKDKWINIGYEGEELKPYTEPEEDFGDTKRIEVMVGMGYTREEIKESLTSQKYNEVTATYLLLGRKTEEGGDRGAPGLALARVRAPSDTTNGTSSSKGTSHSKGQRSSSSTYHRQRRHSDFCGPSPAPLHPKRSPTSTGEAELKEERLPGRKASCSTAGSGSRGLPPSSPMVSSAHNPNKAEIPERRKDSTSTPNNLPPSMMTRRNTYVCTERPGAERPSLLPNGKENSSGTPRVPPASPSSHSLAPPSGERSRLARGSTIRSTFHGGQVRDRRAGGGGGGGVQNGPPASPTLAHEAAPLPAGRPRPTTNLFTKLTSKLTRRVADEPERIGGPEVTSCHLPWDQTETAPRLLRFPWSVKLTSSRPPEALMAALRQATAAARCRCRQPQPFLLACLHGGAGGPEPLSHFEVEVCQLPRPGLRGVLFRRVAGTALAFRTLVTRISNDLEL

Sequence of kinases (KINOMEscan panel) (Homo sapiens, UniProt Q8IU85) (Q8IU85 whole entry): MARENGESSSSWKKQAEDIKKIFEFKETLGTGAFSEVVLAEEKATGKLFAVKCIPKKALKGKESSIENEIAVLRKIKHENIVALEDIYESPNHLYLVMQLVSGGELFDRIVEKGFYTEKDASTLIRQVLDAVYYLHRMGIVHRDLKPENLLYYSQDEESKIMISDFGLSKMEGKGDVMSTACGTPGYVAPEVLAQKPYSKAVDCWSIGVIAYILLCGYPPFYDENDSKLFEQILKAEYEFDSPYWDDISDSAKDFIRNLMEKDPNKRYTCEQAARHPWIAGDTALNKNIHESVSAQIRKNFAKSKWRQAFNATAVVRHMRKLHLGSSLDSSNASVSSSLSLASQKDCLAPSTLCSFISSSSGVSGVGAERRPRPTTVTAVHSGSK

For `Cc1cccc(-c2nc(Nc3ccncc3)c3ccccc3n2)n1` [NK215], the “KINOMEscan PIK3CD” value [1] is listed as 0, the “KINOMEscan EPHA1” value [2] is listed as 23 and the “KINOMEscan CAMK1D” value [3] is listed as 3. The “KINOMEscan MARK4” value [4] was 25.
